In article PMC1847840, “Structural and Chemical Profiling of the Human Cytosolic Sulfotransferases” (PLoS Biology, 2007):
One block for each molecule: values may come before it.

How the values were obtained:
[1] = biological target: T1, SULT1A1 (Homo sapiens, UniProt P50225); test: thermal aggregation shift (StarGazer static light scattering); format: binding; conditions: 1 mM compound, pH 7.5, with saturating PAP
T1 construct: purified recombinant; clone and tag not described
Excerpt: thermal aggregation shift (StarGazer static light scattering) on SULT1A1

[2] = biological target: T2, SULT1C3 (Homo sapiens, UniProt Q6IMI6); test: as above; format: binding; conditions: 1 mM compound
T2 construct: recombinant, modified pET28a-LIC, bacterial expression; extra Gly-Ser at N-terminus

[3] = biological target: T3, SULT1C2 (Homo sapiens, UniProt O75897); test: as above; format: binding; conditions: 1 mM compound, pH 7.5, no other ligand
T3 construct: gene SULT1C4; recombinant, modified pET28a-LIC, bacterial expression; extra Gly-Ser at N-terminus
Excerpt: thermal aggregation shift (StarGazer static light scattering) on SULT1C2

[4] = biological target: T4, SULT1C1 (Homo sapiens, UniProt O00338); test: as above; format: binding; conditions: 1 mM compound
T4 construct: gene SULT1C2; recombinant, modified pET28a-LIC; extra Gly-Ser at N-terminus
Excerpt: thermal aggregation shift (StarGazer static light scattering) on SULT1C1

[5] = biological target: T5, SULT1B1 (Homo sapiens, UniProt O43704); test: as above; format: binding; conditions: 1 mM compound
T5 construct: recombinant, modified pET28a-LIC, bacterial expression; extra Gly-Ser at N-terminus
Excerpt: thermal aggregation shift (StarGazer static light scattering) on SULT1B1

[6] = biological target: T6, SULT1E1 (Homo sapiens, UniProt P49888); test: as above; format: binding; conditions: 1 mM compound, pH 7.5, with saturating PAP
T6 construct: purified recombinant; clone and tag not described
T6 sequence (P49888 1-294): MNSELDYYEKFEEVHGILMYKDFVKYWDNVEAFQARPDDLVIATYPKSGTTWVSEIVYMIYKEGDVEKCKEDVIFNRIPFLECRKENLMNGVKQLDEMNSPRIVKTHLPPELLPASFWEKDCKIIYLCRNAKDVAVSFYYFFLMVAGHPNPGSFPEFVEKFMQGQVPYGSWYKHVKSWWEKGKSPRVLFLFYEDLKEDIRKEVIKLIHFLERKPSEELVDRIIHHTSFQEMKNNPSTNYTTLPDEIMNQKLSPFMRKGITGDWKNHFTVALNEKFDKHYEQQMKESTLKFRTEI
Excerpt: thermal aggregation shift (StarGazer static light scattering) on SULT1E1

[7] = biological target: T7, SULT1A3 (Homo sapiens, UniProt P0DMM9); test: as above; format: binding; conditions: 1 mM compound, pH 7.5, with saturating PAP
T7 construct: purified recombinant; clone and tag not described; SULT1A4 encodes the same protein
Excerpt: thermal aggregation shift (StarGazer static light scattering) on SULT1A3

[8] = biological target: T8, SULT4A1 (Homo sapiens, UniProt Q9BR01); test: as above; format: binding; conditions: 1 mM compound, pH 7.5, without PAP
T8 construct: recombinant, modified pET28a-LIC, bacterial expression; extra Gly-Ser at N-terminus
T8 sequence (Q9BR01 1-284): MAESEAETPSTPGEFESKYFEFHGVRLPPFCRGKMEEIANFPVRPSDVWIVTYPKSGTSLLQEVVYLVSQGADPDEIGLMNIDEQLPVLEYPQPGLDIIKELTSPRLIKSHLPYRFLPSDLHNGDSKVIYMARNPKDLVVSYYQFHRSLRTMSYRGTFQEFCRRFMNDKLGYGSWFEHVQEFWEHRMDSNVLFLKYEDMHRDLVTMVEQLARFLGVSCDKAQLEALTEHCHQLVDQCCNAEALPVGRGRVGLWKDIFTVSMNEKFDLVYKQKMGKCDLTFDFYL
Excerpt: thermal aggregation shift (StarGazer static light scattering) on SULT4A1

[9] = biological target: T9, SULT2A1 (Homo sapiens, UniProt Q06520); test: as above; format: binding; conditions: 1 mM compound, pH 7.5, without PAP
T9 construct: purified recombinant; clone and tag not described
T9 sequence (Q06520 1-285): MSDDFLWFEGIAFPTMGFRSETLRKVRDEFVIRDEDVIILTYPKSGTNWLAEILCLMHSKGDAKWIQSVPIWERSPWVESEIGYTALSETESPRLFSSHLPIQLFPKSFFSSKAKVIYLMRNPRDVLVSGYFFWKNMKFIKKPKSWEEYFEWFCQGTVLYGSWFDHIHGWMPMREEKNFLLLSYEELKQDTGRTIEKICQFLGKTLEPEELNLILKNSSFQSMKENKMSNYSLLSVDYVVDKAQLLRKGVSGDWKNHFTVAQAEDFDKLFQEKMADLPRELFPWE
Excerpt: thermal aggregation shift (StarGazer static light scattering) on SULT2A1

[10] = biological target: T3, SULT1C2; test: X-ray crystal structure, […] Å; format: binding; conditions: ternary complex with PAP; substrate pocket
[11] = biological target: T5, SULT1B1; test: HPLC PAPS to PAP conversion, inhibition of sulfotransferase activity; format: biochemical; conditions: 1-naphthol as substrate; PCP 5 to 312 μM; pH 7.5, 37 °C

T2 sequence (Q6IMI6 whole entry): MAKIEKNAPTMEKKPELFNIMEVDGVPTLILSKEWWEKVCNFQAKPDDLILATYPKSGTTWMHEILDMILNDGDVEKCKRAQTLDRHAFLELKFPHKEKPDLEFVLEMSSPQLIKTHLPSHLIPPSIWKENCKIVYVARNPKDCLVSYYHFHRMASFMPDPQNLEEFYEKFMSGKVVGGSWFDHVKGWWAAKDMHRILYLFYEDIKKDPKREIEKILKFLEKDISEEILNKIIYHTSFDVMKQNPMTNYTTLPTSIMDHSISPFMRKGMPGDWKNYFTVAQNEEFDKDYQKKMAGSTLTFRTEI
T5 sequence (O43704 whole entry): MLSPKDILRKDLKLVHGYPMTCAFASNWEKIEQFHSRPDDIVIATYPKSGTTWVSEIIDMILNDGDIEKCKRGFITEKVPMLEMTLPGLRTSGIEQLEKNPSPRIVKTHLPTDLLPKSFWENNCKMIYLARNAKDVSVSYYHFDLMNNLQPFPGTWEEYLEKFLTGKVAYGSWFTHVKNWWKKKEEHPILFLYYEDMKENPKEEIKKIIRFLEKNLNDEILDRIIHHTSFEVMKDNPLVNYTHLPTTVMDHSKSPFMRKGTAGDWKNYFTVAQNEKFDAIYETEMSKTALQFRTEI
T4 sequence (O00338 whole entry): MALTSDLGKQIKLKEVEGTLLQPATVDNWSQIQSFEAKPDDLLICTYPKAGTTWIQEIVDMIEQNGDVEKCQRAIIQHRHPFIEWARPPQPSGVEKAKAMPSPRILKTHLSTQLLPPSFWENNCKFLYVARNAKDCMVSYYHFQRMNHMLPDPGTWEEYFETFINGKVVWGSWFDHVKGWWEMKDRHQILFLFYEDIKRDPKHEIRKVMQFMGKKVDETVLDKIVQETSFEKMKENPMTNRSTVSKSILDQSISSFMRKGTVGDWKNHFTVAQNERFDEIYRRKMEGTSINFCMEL
T1 sequence (P50225 whole entry): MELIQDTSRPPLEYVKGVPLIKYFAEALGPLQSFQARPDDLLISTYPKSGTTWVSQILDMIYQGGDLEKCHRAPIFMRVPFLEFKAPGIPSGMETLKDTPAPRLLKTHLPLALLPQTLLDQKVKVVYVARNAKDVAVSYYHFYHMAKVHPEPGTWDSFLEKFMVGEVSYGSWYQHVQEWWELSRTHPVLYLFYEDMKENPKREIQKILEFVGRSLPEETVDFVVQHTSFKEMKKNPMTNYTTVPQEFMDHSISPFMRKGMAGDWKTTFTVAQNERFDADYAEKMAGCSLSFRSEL
T3 sequence (O75897 whole entry): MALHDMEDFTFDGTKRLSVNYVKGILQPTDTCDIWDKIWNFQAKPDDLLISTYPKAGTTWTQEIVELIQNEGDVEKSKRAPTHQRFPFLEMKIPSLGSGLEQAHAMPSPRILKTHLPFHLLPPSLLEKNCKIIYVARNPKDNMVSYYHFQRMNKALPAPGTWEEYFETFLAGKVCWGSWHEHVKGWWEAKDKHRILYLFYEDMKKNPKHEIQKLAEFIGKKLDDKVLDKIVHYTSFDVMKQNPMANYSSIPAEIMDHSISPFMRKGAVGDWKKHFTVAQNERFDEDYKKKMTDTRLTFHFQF
T7 sequence (P0DMM9 whole entry): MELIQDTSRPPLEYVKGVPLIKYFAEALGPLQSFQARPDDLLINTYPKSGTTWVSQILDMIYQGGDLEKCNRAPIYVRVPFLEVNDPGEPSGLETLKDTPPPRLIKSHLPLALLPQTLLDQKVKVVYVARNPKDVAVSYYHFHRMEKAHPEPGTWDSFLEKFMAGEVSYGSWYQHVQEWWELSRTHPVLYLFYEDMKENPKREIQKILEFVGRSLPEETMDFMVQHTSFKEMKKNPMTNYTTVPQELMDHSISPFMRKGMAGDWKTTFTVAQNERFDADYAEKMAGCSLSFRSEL

Compound: O=[N+]([O-])c1cc(Cl)c(O)c(Cl)c1 [2,6-dichloro-4-nitrophenol]
dTagg [1]: 8.7 °C

Compound: CCc1ccccc1O [2-ethylphenol]
dTagg ([2]; pH 7.5, with saturating PAP): 2.1 °C

Compound: Nc1ncnc2c1ncn2[C@@H]1O[C@H](COP(=O)(O)O)[C@@H](OP(=O)(O)O)[C@H]1O [3′-phosphoadenosine 5′-phosphate]
dTagg ([2]; pH 7.5, no other ligand): 6.5 °C | dTagg [3]: 6.4 °C | dTagg ([4]; pH 7.5, no other ligand): 4.5 °C | dTagg ([5]; pH 7.5, no other ligand): 7.8 °C

Compound: Oc1c(Cl)c(Cl)c(Cl)c(Cl)c1Cl [pentachlorophenol]
dTagg [1]: 10.2 °C | X-ray crystal structure, 1.8 Å [10]: we determined the structure of SULT1C2 bound to PAP and PCP | % inhibition [11]: PCP and DBHD were strong inhibitors of SULT1B1 | dTagg ([5]; pH 7.5, with saturating PAP): 8.9 °C

Compound: O=c1c(O)c(-c2ccc(O)c(O)c2)oc2cc(O)cc(O)c12 [quercetin dihydrate]
dTagg ([4]; pH 7.5, without PAP): 31 °C

Compound: C[C@H]1CCC[C@H](O)CCC/C=C/c2cc(O)cc(O)c2C(=O)O1 [α-zearalenol]
dTagg ([2]; pH 7.5, with saturating PAP): 2.8 °C

Now from value to molecule:

dTagg [6]: 4.3 °C
Compound: C#C[C@]1(O)CC[C@H]2[C@@H]3CCc4cc(O)ccc4[C@H]3CC[C@@]21C [17α-ethinylestradiol]

dTagg ([5]; pH 7.5, without PAP): 11.4 °C
Compound: O=C(NN=Cc1coc2c(Cl)cc(Cl)cc2c1=O)c1cc(Br)c(O)c(Br)c1 [DBHD, 3,5-dibromo-4-hydroxy-benzoic acid (6,8-dichloro-4-oxo-4H-chromen-3-ylmethylene) hydrazide]

dTagg [7]: 2.3 °C
Compound: NCCc1ccc(O)c(O)c1 [dopamine]

dTagg [8]: 16 °C
Compound: CNC[C@H](O)c1ccc(O)c(O)c1 [epinephrine]

dTagg [8]: 18 °C
Compound: CC(C)NCC(O)c1ccc(O)c(O)c1 (stereo not shown) [isoprenaline]

dTagg [9]: 4.4 °C
Compound: C[C@H](CCC(=O)O)[C@H]1CC[C@H]2[C@@H]3CC[C@@H]4C[C@H](O)CC[C@]4(C)[C@H]3CC[C@]12C [lithocholic acid]

dTagg ([4]; pH 7.5, without PAP): 6.6 °C
Compound: Oc1ccc(/C=C/c2cc(O)cc(O)c2)cc1 [resveratrol]
